Experimental data taken from ChEMBL document CHEMBL3861993, “Alternative core development around the tetracyclic indole class of HCV NS5A inhibitors” (Bioorg Med Chem Lett, 2016).

Tests used:
[1] = tested on: Hepatitis C virus subtype 3a; test: Inhibition of HCV genotype 3a NS5A after 3 day incubation by RT-PCR-cell-based HCV replicon assay
[2] = tested on: Hepatitis C virus subtype 2b; test: Inhibition of HCV genotype 2b NS5A harboring methionine at position 31 after 3 day incubation by RT-PCR-cell-based HCV replicon assay
[3] = tested on: T1, Nonstructural protein 5A (Hepatitis C virus), Q5L478 [Y93H]; test: Inhibition of HCV genotype 1a NS5A Y93H mutant after 3 day incubation by RT-PCR-cell-based HCV replicon assay; conditions: Hepatitis C virus subtype 1a
T1 sequence (whole entry): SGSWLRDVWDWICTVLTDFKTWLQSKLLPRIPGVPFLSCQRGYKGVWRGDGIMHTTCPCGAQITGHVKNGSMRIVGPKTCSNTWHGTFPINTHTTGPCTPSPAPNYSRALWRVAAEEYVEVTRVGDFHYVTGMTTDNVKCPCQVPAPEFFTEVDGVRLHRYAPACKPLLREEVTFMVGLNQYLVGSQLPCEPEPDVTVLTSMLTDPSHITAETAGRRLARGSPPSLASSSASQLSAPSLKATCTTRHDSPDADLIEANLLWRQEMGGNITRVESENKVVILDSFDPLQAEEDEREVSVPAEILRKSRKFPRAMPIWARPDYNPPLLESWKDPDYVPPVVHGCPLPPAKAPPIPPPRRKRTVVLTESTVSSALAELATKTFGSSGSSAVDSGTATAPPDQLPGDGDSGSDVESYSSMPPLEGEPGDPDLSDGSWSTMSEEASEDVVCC

[4] = tested on: Nonstructural protein 5A (Hepatitis C virus), Q5L478 [UNDEFINED MUTATION]; test: Inhibition of HCV genotype 1a NS5A L31V mutant after 3 day incubation by RT-PCR-cell-based HCV replicon assay; conditions: Hepatitis C virus subtype 1a
[5] = tested on: Hepatitis C virus subtype 1a; test: Inhibition of HCV genotype 1a NS5A after 3 day incubation by RT-PCR-cell-based HCV replicon assay
[6] = tested on: Hepatitis C virus subtype 4a; test: Inhibition of HCV genotype 4a NS5A after 3 day incubation by RT-PCR-cell-based HCV replicon assay
[7] = Clearance in rat at 2.5 mg/kg, iv or 5 mg/kg, po; assay type: ADME, organism-based; conditions: in vivo
[8] = Half life in rat at 2.5 mg/kg, iv or 5 mg/kg, po; assay type: ADME, organism-based; conditions: in vivo
[9] = Cmax in rat at 2.5 mg/kg, iv or 5 mg/kg, po; assay type: ADME, organism-based; conditions: in vivo
[10] = AUC in rat at 5 mg/kg, po; assay type: ADME, organism-based; conditions: in vivo
[11] = Oral bioavailability in rat at 5 mg/kg; assay type: ADME, organism-based; conditions: in vivo
[12] = Oral bioavailability in rat at 10 mg/kg; assay type: ADME, organism-based; conditions: in vivo
[13] = AUC in rat at 3 mg/kg, iv or 10 mg/kg, po; assay type: ADME, organism-based; conditions: in vivo
[14] = Clearance in rat at 2 mg/kg, iv or 10 mg/kg, po; assay type: ADME, organism-based; conditions: in vivo
[15] = Half life in rat at 2 mg/kg, iv or 10 mg/kg, po; assay type: ADME, organism-based; conditions: in vivo
[16] = Cmax in rat at 2 mg/kg, iv or 10 mg/kg, po; assay type: ADME, organism-based; conditions: in vivo
[17] = AUC in rat at 10 mg/kg, po; assay type: ADME, organism-based; conditions: in vivo

Row | Structure (SMILES) | EC90 [1] [nM] | EC90 [2] [nM] | EC90 [3] [nM] | EC90 [4] [nM] | EC90 [5] [nM] | EC90 [6] [nM] | clearance [7] [mL/min/kg] | half-life [8] [h] | Cmax [9] [nM] | AUC [10] [µM·h] | bioavailability [11] [%] | bioavailability [12] [%] | AUC [13] [µM·h] | clearance [14] [mL/min/kg] | half-life [15] [h] | Cmax [16] [nM] | AUC [17] [µM·h]
1 | COC(=O)N[C@H](C(=O)N1CCC[C@H]1c1ncc(-c2ccc3c(c2)OC(C2CC2)C2=C3COc3cc(-c4cnc([C@@H]5CCCN5C(=O)[C@@H](NC(=O)OC)C(C)C)[nH]4)ccc32)[nH]1)C(C)C (stereo not given in full) | 10.7 | 5.2 | 41 | 1.7 | 0.063 | – | – | – | – | – | – | – | – | – | – | – | –
2 | COC(=O)N[C@H](C(=O)N1CCC[C@H]1c1nc(-c2ccc3c(c2)O[C@@H](c2ccccc2)n2c-3cc3cc(-c4c[nH]c([C@@H]5CCCN5C(=O)[C@@H](NC(=O)OC)C(C)C)n4)ccc32)c[nH]1)C(C)C | 0.12 | 11 | – | – | 0.006 | 0.016 | – | – | – | – | – | – | – | – | – | – | –
3 | COC(=O)N[C@H](C(=O)N1CCC[C@H]1c1ncc(-c2ccc3c(c2)Oc2ccc(-c4cnc([C@@H]5CCCN5C(=O)[C@@H](NC(=O)OC)C(C)C)[nH]4)c4c2N3CCO4)[nH]1)C(C)C | 4.69 | 100 | 361 | 100 | 0.005 | 2.48 | – | – | – | – | – | – | – | – | – | – | –
4 | COC(=O)N[C@H](C(=O)N1CCC[C@H]1c1ncc(-c2ccc3c(c2)Oc2ccc(-c4cnc([C@@H]5CCCN5C(=O)[C@@H](NC(=O)OC)C(C)C)[nH]4)c4occ-3c24)[nH]1)C(C)C | 0.32 | 100 | 132 | 100 | 0.03 | 0.31 | 8.5 | 1.9 | 830 | 4.28 | 34 | – | – | – | – | – | –
5 | COC(=O)N[C@H](C(=O)N1CCC[C@H]1c1ncc(-c2ccc3c(c2)Oc2ccc(-c4cnc([C@@H]5CCCN5C(=O)[C@@H](NC(=O)OC)C(C)C)[nH]4)c4c2N3CC4)[nH]1)C(C)C | 4.42 | – | 685 | 100 | > 0.1 | 8.17 | – | – | – | – | – | – | – | – | – | – | –
6 | COC(=O)N[C@H](C(=O)N1CCC[C@H]1c1ncc(-c2ccc3c(c2)Oc2ccc(-c4cnc([C@@H]5CC(F)(F)CN5C(=O)[C@@H](NC(=O)OC)C(C)C)[nH]4)c4ccn-3c24)[nH]1)C(C)C | – | 342 | 22 | 17.2 | 0.02 | – | – | – | – | – | – | 15 | 3.98 | – | – | – | –
7 | COC(=O)N[C@H](C(=O)N1CCC[C@H]1c1ncc(-c2ccc3c(c2)Oc2ccc(-c4cnc([C@@H]5CCCN5C(=O)[C@@H](NC(=O)OC)C(C)C)[nH]4)c4c2N3CCC4)[nH]1)C(C)C | > 10 | 100 | 441 | 100 | > 0.1 | 4.81 | – | – | – | – | – | – | – | – | – | – | –
8 | COC(=O)N[C@H](C(=O)N1CCC[C@H]1c1ncc(-c2ccc3c(c2)Oc2ccc(-c4cnc([C@@H]5CCCN5C(=O)[C@@H](NC(=O)OC)C(C)C)[nH]4)c4cnn-3c24)[nH]1)C(C)C | 1.59 | 100 | 124 | 62.3 | 0.04 | 0.76 | – | – | – | – | – | – | – | – | – | – | –
9 | COC(=O)N[C@H](C(=O)N1CCC[C@H]1c1ncc(-c2ccc3c(c2)OC(C)C2=C3COc3cc(-c4cnc([C@@H]5CCCN5C(=O)[C@@H](NC(=O)OC)C(C)C)[nH]4)ccc32)[nH]1)C(C)C (stereo not given in full) | – | 28.1 | 55.1 | 1.52 | 0.028 | – | – | – | – | – | – | – | – | – | – | – | –
10 | COC(=O)N[C@H](C(=O)N1CCC[C@H]1c1ncc(-c2cc3c4c(c2)CCc2cc(-c5cnc([C@@H]6CCCN6C(=O)[C@@H](NC(=O)OC)C(C)C)[nH]5)cc(c2-4)CC3)[nH]1)C(C)C | 2 | > 100 | 57 | 18.9 | 0.05 | 0.8 | – | – | – | – | – | – | – | – | – | – | –
11 | COC(=O)N[C@H](C(=O)N1CCC[C@H]1c1ncc(-c2cc3c4c(c2)CCc2cc(-c5cnc([C@@H]6C[C@@H](F)CN6C(=O)[C@@H](NC(=O)OC)C(C)C)[nH]5)cc(c2-4)CC3)[nH]1)C(C)C | 6 | > 100 | 22.7 | 26.2 | 0.052 | 5.5 | – | – | – | – | – | – | – | – | – | – | –
12 | COC(=O)N[C@H](C(=O)N1CCC[C@H]1c1ncc(-c2ccc3c(c2)OCn2c-3cc3cc(-c4cnc([C@@H]5CCCN5C(=O)[C@@H](NC(=O)OC)C(C)C)[nH]4)ccc32)[nH]1)C(C)C | > 1 | 75.7 | > 100 | 6.5 | 0.02 | 0.18 | – | – | – | – | – | – | – | – | – | – | –
13 | COC(=O)N[C@H](C(=O)N1CCC[C@H]1c1ncc(-c2cc3c4c(c2)CCc2cc(-c5cnc([C@@H]6CC(F)(F)CN6C(=O)[C@@H](NC(=O)OC)C(C)C)[nH]5)cc(c2-4)CC3)[nH]1)C(C)C | > 10 | > 100 | 30.2 | 20.7 | 0.07 | 0.6 | – | – | – | – | – | – | – | – | – | – | –
14 | COC(=O)N[C@H](C(=O)N1CCC[C@H]1c1ncc(-c2ccc3c(c2)OC(c2cccc(OC)c2)C2=C3COc3cc(-c4cnc([C@@H]5CCCN5C(=O)[C@@H](NC(=O)OC)C(C)C)[nH]4)ccc32)[nH]1)C(C)C (stereo not given in full) | 1.93 | 4.7 | 12 | 0.3 | 0.039 | – | – | – | – | – | – | – | – | – | – | – | –
15 | COC(=O)N[C@H](C(=O)N1CCC[C@H]1c1ncc(-c2ccc3c(c2)OC(c2ccccc2)C2=C3COc3cc(-c4cnc([C@@H]5CCCN5C(=O)[C@@H](NC(=O)OC)C(C)C)[nH]4)ccc32)[nH]1)C(C)C (stereo not given in full) | 0.56 | 8.46 | > 100 | 0.28 | 0.017 | 0.17 | – | – | – | – | – | – | – | – | – | – | –
16 | COC(=O)N[C@H](C(=O)N1CCC[C@H]1c1ncc(-c2ccc3c(c2)OCc2c-3c(=O)oc3cc(-c4cnc([C@@H]5CCCN5C(=O)[C@@H](NC(=O)OC)C(C)C)[nH]4)ccc23)[nH]1)C(C)C | > 1 | 113 | > 50 | 58.6 | 0.01 | 0.18 | – | – | – | – | – | – | – | – | – | – | –
17 | COC(=O)N[C@H](C(=O)N1CCC[C@H]1c1ncc(-c2ccc3c(c2)OCC2=C3COc3cc(-c4cnc([C@@H]5CCCN5C(=O)[C@@H](NC(=O)OC)C(C)C)[nH]4)ccc32)[nH]1)C(C)C | > 1 | 24.7 | > 100 | 0.33 | 0.01 | 0.18 | – | – | – | – | – | 14 | – | 5.3 | 2.7 | 660 | 5.57
18 | COC(=O)N[C@H](C(=O)N1CCC[C@H]1c1ncc(-c2ccc3c(c2)Oc2ccc(-c4cnc([C@@H]5CCCN5C(=O)[C@@H](NC(=O)OC)C(C)C)[nH]4)c4ccn-3c24)[nH]1)C(C)C | 0.69 | – | 122 | 90.2 | 0.06 | 0.31 | – | – | – | – | – | – | – | – | – | – | –
